# Biological target: Human immunodeficiency virus type 1 protease (Human immunodeficiency virus 1, UniProt Q72874)
# Test: Inhibitory activity against HIV-1 protease
row,Compound,IC50 [nM]
1,Cc1cc(O)c(C)c(C(=O)N[C@@H](Cc2ccccc2)[C@H](O)C(=O)N2C[C@@H](Cl)C[C@H]2C(=O)NC(C)(C)C)c1,1.3
2,COc1cccc(C(=O)N[C@@H](Cc2ccccc2)[C@H](O)C(=O)N2C[C@@H](Cl)C[C@H]2C(=O)NC(C)(C)C)c1O,1000
3,Cc1c(O)cccc1C(=O)N[C@@H](Cc1ccccc1)[C@H](O)C(=O)N1C[C@@H](Cl)C[C@H]1C(=O)NC(C)(C)C,0.8
4,CC(C)(C)NC(=O)[C@@H]1C[C@H](Cl)CN1C(=O)[C@@H](O)[C@H](Cc1ccccc1)NC(=O)c1cccc(O)c1Br,1.5
5,Cc1cc(O)c(C)c(C(=O)N[C@@H](Cc2cc(F)cc(F)c2)[C@H](O)C(=O)N2C[C@@H](Cl)C[C@H]2C(=O)NC(C)(C)C)c1,1.2
6,Cc1c(O)cc(F)cc1C(=O)N[C@@H](Cc1cccc(C(F)(F)F)c1)[C@H](O)C(=O)N1C[C@@H](Cl)C[C@H]1C(=O)NC(C)(C)C,2.1
7,Cc1ccc(C(=O)N[C@@H](Cc2cccc(C(F)(F)F)c2)[C@H](O)C(=O)N2C[C@@H](Cl)C[C@H]2C(=O)NC(C)(C)C)c(C)c1O,3.5
8,Cc1ccc(O)c(C)c1C(=O)N[C@@H](Cc1ccc(C(F)(F)F)cc1)[C@H](O)C(=O)N1C[C@@H](Cl)C[C@H]1C(=O)NC(C)(C)C,3.9
9,Cc1ccc(O)c(C)c1C(=O)N[C@@H](Cc1ccccc1)[C@H](O)C(=O)N1C[C@@H](Cl)C[C@H]1C(=O)NC(C)(C)C,2.5
10,Cc1cc(O)c(C)c(C(=O)N[C@@H](Cc2ccc3ccccc3c2)[C@H](O)C(=O)N2C[C@@H](Cl)C[C@H]2C(=O)NC(C)(C)C)c1,0.8
11,Cc1ccc(C[C@H](NC(=O)c2ccc(C)c(O)c2C)[C@H](O)C(=O)N2C[C@@H](Cl)C[C@H]2C(=O)NC(C)(C)C)cc1,8.6
12,Cc1cc(O)c(C)c(C(=O)N[C@@H](Cc2cccc(C(F)(F)F)c2)[C@H](O)C(=O)N2C[C@@H](Cl)C[C@H]2C(=O)NC(C)(C)C)c1,1.9
13,CC(C)(C)NC(=O)[C@@H]1C[C@H](Cl)CN1C(=O)[C@@H](O)[C@H](Cc1ccccc1)NC(=O)c1ccccc1O,1000
14,Cc1ccc(C(=O)N[C@@H](Cc2ccc3ccccc3c2)[C@H](O)C(=O)N2C[C@@H](Cl)C[C@H]2C(=O)NC(C)(C)C)c(C)c1O,3.2
15,Cc1cccc(C[C@H](NC(=O)c2ccc(C)c(O)c2C)[C@H](O)C(=O)N2C[C@@H](Cl)C[C@H]2C(=O)NC(C)(C)C)c1,2.5
16,Cc1ccc(C(=O)N[C@@H](Cc2ccc(C(F)(F)F)cc2)[C@H](O)C(=O)N2C[C@@H](Cl)C[C@H]2C(=O)NC(C)(C)C)c(C)c1O,6.3
17,CC(C)(C)NC(=O)[C@@H]1C[C@H](Cl)CN1C(=O)[C@@H](O)[C@H](Cc1ccccc1)NC(=O)c1ccccc1Cl,11
18,Cc1ccccc1C[C@H](NC(=O)c1ccc(C)c(O)c1C)[C@H](O)C(=O)N1C[C@@H](Cl)C[C@H]1C(=O)NC(C)(C)C,49.9

row,Compound,IC50 [nM]
1,Cc1cccc(C)c1C(=O)N[C@@H](Cc1ccccc1)[C@H](O)C(=O)N1C[C@@H](Cl)C[C@H]1C(=O)NC(C)(C)C,3.6
2,CC(C)(C)NC(=O)[C@@H]1C[C@H](Cl)CN1C(=O)[C@@H](O)[C@H](Cc1ccccc1)NC(=O)c1ccccc1,26
3,Cc1ccc(C(=O)N[C@@H](Cc2ccccc2)[C@H](O)C(=O)N2C[C@@H](Cl)C[C@H]2C(=O)NC(C)(C)C)c(C)c1O,8.2
4,Cc1ccc(O)c(C)c1C(=O)N[C@@H](Cc1ccc2ccccc2c1)[C@H](O)C(=O)N1C[C@@H](Cl)C[C@H]1C(=O)NC(C)(C)C,2.8
5,CC(C)(C)NC(=O)[C@@H]1C[C@H](Cl)CN1C(=O)[C@@H](O)[C@H](Cc1ccccc1)NC(=O)c1ccc(O)cc1,33
6,CC(C)(C)NC(=O)[C@@H]1C[C@H](Cl)CN1C(=O)[C@@H](O)[C@H](Cc1ccccc1)NC(=O)c1ccccc1N,39
7,Cc1c(N)cccc1C(=O)N[C@@H](Cc1ccccc1)[C@H](O)C(=O)N1C[C@@H](Cl)C[C@H]1C(=O)NC(C)(C)C,5.4
8,Cc1ccc(C[C@H](NC(=O)c2c(C)ccc(O)c2C)[C@H](O)C(=O)N2C[C@@H](Cl)C[C@H]2C(=O)NC(C)(C)C)cc1,3.6
9,Cc1c(O)cc(F)cc1C(=O)N[C@@H](Cc1ccccc1)[C@H](O)C(=O)N1C[C@@H](Cl)C[C@H]1C(=O)NC(C)(C)C,1.7
10,Cc1ccc(O)c(C)c1C(=O)N[C@@H](Cc1cccc(C(F)(F)F)c1)[C@H](O)C(=O)N1C[C@@H](Cl)C[C@H]1C(=O)NC(C)(C)C,4.6
11,CC(C)(C)NC(=O)[C@@H]1C[C@H](Cl)CN1C(=O)[C@@H](O)[C@H](Cc1ccccc1)NC(=O)c1ccccc1Br,12
12,CC(C)(C)NC(=O)[C@@H]1C[C@H](Cl)CN1C(=O)[C@@H](O)[C@H](Cc1ccccc1)NC(=O)c1cccc(O)c1,9
13,Cc1cccc(C[C@H](NC(=O)c2c(C)ccc(O)c2C)[C@H](O)C(=O)N2C[C@@H](Cl)C[C@H]2C(=O)NC(C)(C)C)c1,3.4
14,Cc1cccc(C[C@H](NC(=O)c2cc(C)cc(O)c2C)[C@H](O)C(=O)N2C[C@@H](Cl)C[C@H]2C(=O)NC(C)(C)C)c1,1.3
15,Cc1ccccc1C[C@H](NC(=O)c1c(C)ccc(O)c1C)[C@H](O)C(=O)N1C[C@@H](Cl)C[C@H]1C(=O)NC(C)(C)C,34.3
16,CC(C)(C)NC(=O)[C@@H]1C[C@H](Cl)CN1C(=O)[C@@H](O)[C@H](Cc1ccccc1)NC(=O)c1ccccc1I,14
17,Cc1c(O)cc(F)cc1C(=O)N[C@@H](Cc1ccc2ccccc2c1)[C@H](O)C(=O)N1C[C@@H](Cl)C[C@H]1C(=O)NC(C)(C)C,1.2
18,Cc1cc(O)c(C)c(C(=O)N[C@@H](Cc2ccc(-c3ccccc3)cc2)[C@H](O)C(=O)N2C[C@@H](Cl)C[C@H]2C(=O)NC(C)(C)C)c1,1.3

# — ChEMBL document CHEMBL1135444, “Elucidating the inhibiting mode of AHPBA derivatives against HIV-1 protease and building predictive 3D-QSAR models” (J Med Chem, 2002)
